Results published in paper PMC11468294, “Peptide Amphiphiles as Biodegradable Adjuvants for Efficient Retroviral Gene Delivery” (Advanced Healthcare Materials, 2023).
“Also recorded” adds a separate entry of the source. Where a SMILES comes first, the peptide text is derived from it. The star is where a group is joined. X2 = CC/C=C\C/C=C\C/C=C\C/C=C\C/C=C\CCCC(=O)*; Fmoc = O=C(OCC1c2ccccc2-c2ccccc21)*; Palmitoyl = CCCCCCCCCCCCCCCC(=O)*; Lauroyl = CCCCCCCCCCCC(=O)*

Legend:
[1] = Microscopic aggregation (fluorescence / confocal microscopy, derived count rate); assay type: physicochemical; details: fibrils preformed at 1 mg mL-1 in PBS; ThT or Proteostat stain, widefield or confocal microscopy; derived count rate > 1000 kcps as criterion
Method: (§1) Transmission electron microscopy (TEM) measurements, Thioflavin (ThT), zeta‐potential measurements for fibril characterization, ATR‐IR spectra acquisition and the calculation of β−sheet were prepared and conducted analogous to a previous report.^[ [20], [86] ^] […] Fibrils were defined as distinct, if no visible structures could be identified in fluorescence and brightfield microscopy. […] The derived count rate of the zeta‐potential measurement was used as information on the light scattering intensity and turbidity of the sample as a further indicator for microscopic aggregation.^[ [90] ^]
Fluorescence microscopy: 1 µL Fibrils (1 mg mL^−1) were stained with 9 µL, 50 µM ThT. 10 µL of the stained fibrils (0.1 mg mL^−1) were placed on a microscopy glass. Fluorescence microscopy measurements were performed on a Leica DMi8 microscope with 10x air objective and equipped with a Leica MC170 HD camera with a filter setting λem = 527/30 nm upon excitation at λex = 480/40 nm) and processed with the Leica LASX software.
(§2) 7 Effects of PA modifications on properties and activity
(§3) To investigate the effects of modification in the PA sequence, we created various peptide amphiphiles derived from PA1 by varying the (I) hydrophobic moiety, (II) the linkage chemistry and (III) the peptide sequence (Figure S12, SI chapter 7.1 – 7.3). The color code for sequence representation is yellow for the hydrophobic moiety, blue for cationic amino acids, red for non-polar amino acids, purple for polar uncharged amino acids, and green for anionic amino acids. To be concise, only the summarized information will be discussed, all original data for the peptides are summarized in the (Figure S26 - […]
(§4) Figure S12 Summarized overview of peptide amphiphile library in which systematic variations the original sequence […]
(§5) chemistry and (III) the peptide sequence on infectivity enhancement and degradability (see SI chapter 7.1 – 7.3).
(§6) In the following section a compound is considered infectivity enhancing if n-fold infectivity at 1.3 µM is larger than 2. A compound is considered to form µm-sized aggregates if visible particles were observed in widefield microscopy (brightfield or ThT-staining filter, objective 10x) or confocal […]
(§7) than 1000 kcps in Zeta-Potential measurements.
(§8) For the degradability only the PAs which could be stained with Proteostat (Figure S26) and were visible in microscopy (Figure S15, Figure S18, Figure S21, and Figure S22) were studied in detail. To determine […]
whether a PA is degraded or not, Proteostat stained PAs which are added to Hela cells (2 µg peptide added to 20.000 cells) and studied via confocal laser scanning microscopy. […]
In the following, we will distinguish between three aggregation types for fibrillar structures: Fibrils which were not aggregating (below resolution limit of the microscope, approx. 650 nm), moderately aggregating (< 50 µm2) and aggregating to large particles (> 50 µm 2).
7.1 Effects of hydrophobic moiety exchange on properties and activity
To investigate the effects of varying hydrophobic moieties on assembly, aggregation and activity , we

[2] = TEM morphology of peptide assemblies; assay type: physicochemical; details: diluted from DMSO stock (10 mg mL-1) to 1 mg mL-1 in PBS, incubated 1 d at rt
Method: as §1
TEM: 5 µL of fibrils (1 mg mL^−1) were placed on 300 mesh, Formvar layered copper grids. After 10 min incubation time, the grids were staining with 4% uranyl acetate solution for 2.5 min. After
three washing steps with dd H2O excess solvent was removed by filter paper. Measurements
were performed on a Jeol 1400 electron microscope with 120 kV acceleration voltage.

[3] = test system: HIV-1 infection of TZM-bl cells; assay: HIV-1 infection assay (β-galactosidase luminescence reporter); assay type: cell-based; details: for infectivity enhancement of HIV-1 (in words): infectivity enhancing if n-fold at 1.3 µM larger than 2
Method: HIV‐1 Infection Assay: The effect of peptide fibrils on HIV‐1 infection was studied via a luminescence assay for β‐galactosidase, which was reported by TZM‐bl cells upon infection. 10000 TZM‐bl cells were seeded in 180 µl supplemented DMEM one day prior infection. The cells were inoculated with 20 µl PNF solution 1:1 (v/v) mixed with virus (1:500 dilution) after an incubation time of 10 min. The HIV‐1 infection assay was conducted in three technical replicates and repeated in three independent experiments unless stated otherwise. The assay was conducted as described before.^[ [20] ^]

[4] = test system: HeLa cells; assay type: in vitro ADME; details: for degradability by cells (in words): HeLa cells, 2 µg peptide added to 20,000 cells, d0 (30 min) vs d3, degradable if number and size of aggregates are reduced after 3 days
Method: Confocal laser scanning microscopy and degradation study with PA library and HeLa cells: Confocal laser scanning microscopy studies were performed for the visualization of the cell‐PA interaction. HeLa cells were seeded one day prior to conducting the assay (20000/well) in an 8‐well IBIDI slide. 2 µL of the preformed peptide fibrils (1 mg mL^−1) were diluted with 2 µL Proteostat (Enzo Life Science, 1 µL stock in 99 µL PBS) and incubated for 10 min and further diluted with medium to receive a final peptide concentration of 10 µg mL^−1. The nucleus of the HeLa cells was stained with Hoechst 33 342 (NucBlue, Thermo Fisher Scientific). The peptide solution mixture was transferred to the HeLa cells and incubated for 30 min at 37°C before washing three times with PBS. The interaction of fibril clusters with cells was monitored after 30 min incubation time on a Stellaris 8 confocal laser scanning microscope (Leica) equipped with a 20x air objective and laser excitation wavelengths of 405 nm (Hoechst), and 561 nm (Proteostat). For the evaluation of aggregate degradation, the samples were further incubated at 37°C for 3 d and analyzed without any additional washing step. The evaluation of aggregate size and number was conducted by analyzing Proteostat stained aggregates via the 3D objects counter function of ImageJ 1.53f51 for 3 individual measurements (area 1008 µm × 1008 µm). […] The number of aggregates were determined by counting aggregates larger than the threshold 10 µm^2 in an area of 1008 µm × 1008 µm and repeated in three technical triplicates.
as §2, §3, §4, §5, §6, §7, §8
whether a PA is degraded or not, Proteostat stained PAs which are added to Hela cells (2 µg peptide added to 20.000 cells) and studied via confocal laser scanning microscopy. Microscopy is conducted at day 0 (d0, after 30 min of incubation) and at day 3 (d3, after 72 h of incubation). The number of aggregates >10 µm2 is counted via 3D object counter in ImageJ in an area of 1008 µm × 1008 µm.
A PA is considered as degradable if the number and the size of aggregates are reduced after 3 days.
The efficiency is determined by the percentual degradation (aggregate number at d3 / aggregate number at d0). Three technical replicates were evaluated for each sample. A large deviation in number and size of aggregates represents a nonhomogeneous distribution and polymorphism of aggregates.

| Molecule | formation of µm-sized aggregates (in words) [1] | morphology of peptide assemblies / fibril formation (TEM) [2] | infectivity enhancement of HIV-1 (in words) [3] | degradability by cells (in words) [4] | reduction of infectivity enhancement relative to the original amide-linked PA ([3]; n-fold at 1.3 µM) | average size of aggregates ([4]; Proteostat-stained PA with HeLa cells, confocal aggregate analysis) |
| --- | --- | --- | --- | --- | --- | --- |
| CCCCCCCCCCCCCCCC(=O)N[C@@H](CCCCN)C(=O)NCC(=O)N[C@H](C(=O)N1CCC[C@H]1C(=O)NCC(=O)N[C@H](C(=O)NCC(=O)N[C@@H](CCCCN)C(N)=O)C(C)C)C(C)C (Palmitoyl-KGVPGVGK-NH2) | not forming µm-sized aggregates and forming too few/less aggregates, respectively | not forming fibrils; also recorded: cannot self‐assemble into fibrils | Inactive |  |  |  |
| CCCCCCCCCCCCCCCC(=O)N[C@@H](Cc1c[nH]c2ccccc12)C(=O)N[C@@H](CCC(=O)O)C(=O)N[C@@H](C)C(=O)N[C@@H](CC(C)C)C(=O)N[C@@H](CCCCN)C(=O)N[C@@H](CCCCN)C(N)=O [C16-WEALKK-NH2] (Palmitoyl-WEALKK-NH2) | not forming µm-sized aggregates and forming too few/less aggregates, respectively | not forming fibrils; also recorded: cannot self‐assemble into fibrils | Inactive |  |  |  |
| CCCCCCCCCCCCCCCC(=O)N[C@@H](C)C(=O)NCC(=O)N[C@@H](C)C(=O)NCC(=O)N[C@@H](CCCNC(=N)N)C(=O)N[C@@H](CCCNC(=N)N)C(=O)N[C@@H](CCCNC(=N)N)C(N)=O [C16-AGAGRRR-NH2] (Palmitoyl-AGAGRRR-NH2) | not forming µm-sized aggregates and forming too few/less aggregates, respectively; also recorded: cannot form µm‐sized aggregates |  | Inactive |  |  |  |
| CCCCCCCCCCCCCCCC(=O)NCC(=O)NCC(=O)N[C@H](C(=O)N[C@H](C(=O)N[C@@H](CCCNC(=N)N)C(=O)N[C@@H](CCCNC(=N)N)C(N)=O)C(C)C)C(C)C [C16-GGVVRR-NH2] (Palmitoyl-GGVVRR-NH2) | not forming µm-sized aggregates and forming too few/less aggregates, respectively; also recorded: cannot form µm‐sized aggregates |  | Inactive |  |  |  |
| CC(C)[C@H](NC(=O)OCC1c2ccccc2-c2ccccc21)C(=O)N[C@H](C(=O)N[C@H](C(=O)N[C@@H](C)C(=O)N[C@@H](C)C(=O)N[C@@H](C)C(=O)N[C@@H](CCCCN)C(=O)N[C@@H](CCCCN)C(=O)N[C@@H](CCCCN)C(N)=O)C(C)C)C(C)C (Fmoc-VVVAAAKKK-NH2) | very large | forming fibrils | active | cannot be degraded by cells |  |  |
| CCCCCCCCCCCC(=O)N[C@H](C(=O)N[C@H](C(=O)N[C@H](C(=O)N[C@@H](C)C(=O)N[C@@H](C)C(=O)N[C@@H](C)C(=O)N[C@@H](CCCCN)C(=O)N[C@@H](CCCCN)C(=O)N[C@@H](CCCCN)C(N)=O)C(C)C)C(C)C)C(C)C [C12] (Lauroyl-VVVAAAKKK-NH2) | large aggregate formation |  | efficient infectivity enhancement | partially degraded |  |  |
| C16-disulfide-CVVVAAAKKK-NH2 [PA1 variant with disulfide linker] | not forming visible aggregates |  |  |  | approx. 60% |  |
| CC/C=C\C/C=C\C/C=C\C/C=C\C/C=C\CCCC(=O)N[C@H](C(=O)N[C@H](C(=O)N[C@H](C(=O)N[C@@H](C)C(=O)N[C@@H](C)C(=O)N[C@@H](C)C(=O)N[C@@H](CCCCN)C(=O)N[C@@H](CCCCN)C(=O)N[C@@H](CCCCN)C(N)=O)C(C)C)C(C)C)C(C)C (X2-VVVAAAKKK-NH2) |  | structures composed of fibrillar structures |  | degradable PA |  | 6-7 µm2 |
| CCCCCCCCCCCCCCCC(=O)NCC(=O)N[C@@H](CCCCN)C(=O)N[C@H](C(=O)NCC(=O)N[C@@H](CO)C(=O)N[C@@H](CCCCN)C(N)=O)C(C)C [C16-GKVGSK-NH2] (Palmitoyl-GKVGSK-NH2) | cannot form µm‐sized aggregates |  | Inactive |  |  |  |
| CCCCCCCCCCCCCCCC(=O)NCC(=O)NCC(=O)NCC(=O)N[C@@H](CO)C(=O)N[C@@H](CO)C(=O)N[C@@H](CCCCN)C(=O)N[C@@H](CCCCN)C(=O)N[C@@H](CCCCN)C(N)=O (Palmitoyl-GGGSSKKK-NH2) | not forming µm-sized aggregates and forming too few/less aggregates, respectively; also recorded: cannot form µm‐sized aggregates |  | Inactive |  |  |  |
